Literature values in patent publication US20230001221A1, “Methods of Treating Cancer with Alternating Electric Fields, Checkpoint Inhibitors, and Combination Chemotherapy” (Novocure GmbH, priority 2021, published 2023).

Tests used:
[1] = tested on: tumor growth; details: in-vivo, TTFields added to the chemotherapy
[2] = tested on: human and murine pancreatic cancer cell lines; details: in-vitro, TTFields combined with the chemotherapy

In the case of `Nc1ccn([C@@H]2O[C@H](CO)[C@@H](O)C2(F)F)c(=O)n1` [gemcitabine], the “inhibition of tumor growth” value [1] is given as “significant inhibition of tumor growth” and the “cytotoxicity when combined with TTFields” value [2] is given as “enhanced cytotoxicity”.

For `CCc1c2c(nc3ccc(OC(=O)N4CCC(N5CCCCC5)CC4)cc13)-c1cc3c(c(=O)n1C2)COC(=O)[C@]3(O)CC` [irinotecan], the “cytotoxicity when combined with TTFields” value [2] is listed as “enhanced cytotoxicity”.

For `O=c1[nH]cc(F)c(=O)[nH]1` [5-FU, fluorouracil], the “inhibition of tumor growth” value [1] is listed as “significant inhibition of tumor growth”.
